According to patent US10464922B2, “Metalloenzyme inhibitor compounds” (NQP 1598 LTD., priority 2015, dated 2019):
≈ marks a conversion by molar mass, not a printed value.

How the values were obtained:
C. albicans (ATCC 90028) = test: Minimum inhibitory concentration, in vitro broth microdilution assay (CLSI M27-A2); type: cell-based, Candida albicans; conditions: ATCC 90028, about 50% growth reduction, 2 days at 36° C., range tested 8-0.0078 μg/mL, values given as ranges; for MIC: Candida albicans, ATCC90028, 48 h, read-out: Candida albicans MIC
Method: The antifungal potency of the test compounds was measured using the in vitro broth microdilution assay under assay conditions described by the Clinical and Laboratory Standards Institute (CLSI M27-A2). The test compounds were dissolved in 100% DMSO, suspended completely by sonication or vortexing, diluted by 2-fold serial titrations in the same vehicle, for a total of 11 test concentrations. A 4 μL aliquot of each dilution was added to 196 μL of RPMI-1640+MOPS medium seeded with the C. albicans (ATCC 90028) suspension in wells of a 96 well plate (fungal cell count: 1×10^3 to 1×10^4 colony forming units per mL). The final volume was 200 μL in each well and the final DMSO concentration was 2 percent. The inoculated plates were incubated for 2 days at 36° C. Following incubation, the test plates were visually examined and wells were scored for growth to define the minimum inhibitory concentration. […] Each test substance was evaluated in duplicate. Vehicle-control and an active reference agent (e.g., posaconazole) were used as blank and positive controls, respectively.

A. fumigatus = A. fumigatus MIC at 100% growth inhibition (CLSI M38-A2); type: cell-based, Aspergillus fumigatus; conditions: 100% growth inhibition, range tested 8-0.0078 μg/mL, values given as ranges; for MIC: Aspergillus fumigatus, read-out: Aspergillus fumigatus MIC
Method: A. fumigatus MICs were determined at 100% growth inhibition following CLSI guidelines at a concentration range of 8-0.0078 μg/mL (CLSI M38-A2).

MIC (C. albicans (ATCC 90028)) [µg/mL] | MIC (A. fumigatus) [µg/mL] | Candida albicans MIC (C. albicans (ATCC 90028)) [µg/mL] | Aspergillus fumigatus MIC (A. fumigatus) [µg/mL] | Compound
0.0078 to 0.01 (≈ 0.0118 to 0.0151 µM) | > 8 |  |  | OC(c1ccc(N2CCN(c3ccc(-c4ccc(C(F)(F)[C@](O)(Cn5cnnn5)c5ccc(F)cc5F)nc4)cc3)CC2)cn1)C1CC1 (some centres unmarked) [Example 46]
 |  | ≤0.0078 to 0.010 | 0.062 to 0.25 | OC(CC(F)(F)F)c1ccc(N2CCN(c3ccc(-c4ccc(C(F)(F)[C@](O)(Cn5cncn5)c5ccc(F)cc5F)nc4)cc3)CC2)cn1 (single isomer, unassigned; (+)) [120(+)]
 |  | ≤0.0078 to 0.010 | 0.25 to 1.0 | OC(c1ccc(N2CCN(c3ccc(-c4ccc(C(F)(F)C(O)(Cn5cnnn5)c5cc(F)ccc5F)nc4)cc3)CC2)cc1)C(F)(F)F (stereo not drawn) [15(+)]
0.0078 to 0.01 (≈ 0.012 to 0.0154 µM) | 0.25 to 1 (≈ 0.386 to 1.54 µM) |  |  | CC(C)(O)c1ccc(N2CCN(c3ccc(-c4ccc(C(F)(F)[C@](O)(Cn5cnnn5)c5ccc(F)cc5F)nc4)cc3)CC2)cc1 [Example 72, (R)-2-(2,4-difluorophenyl)-1,1-difluoro-1-(5-(4-(4-(4-(2-hydroxypropan-2-yl)phenyl)piperazin-1-yl)phenyl)pyridin-2-yl)-3-(1H-tetrazol-1-yl) propan-2-ol]
0.0078 to 0.01 (≈ 0.0103 to 0.0132 µM) | 0.062 to 0.25 (≈ 0.082 to 0.331 µM) |  |  | O=c1n(-c2ccc(N3CCN(c4ccc(-c5ccc(C(F)(F)[C@](O)(Cn6cnnn6)c6ccc(F)cc6F)nc5)cc4)CC3)cn2)cnn1CC(F)(F)F [Example 87, (R)-4-(5-(4-(4-(6-(2-(2,4-difluorophenyl)-1,1-difluoro-2-hydroxy-3-(1H-tetrazol-1-yl)propyl)pyridin-3-yl)phenyl)piperazin-1-yl)pyridin-2-yl)-2-(2,2,2-trifluoroethyl)-2,4-dihydro-3H-1,2,4-triazol-3-one]
0.0078 to 0.01 (≈ 0.0116 to 0.0149 µM) | > 8 |  |  | N#Cc1ccc2sc(N3CCN(c4ccc(-c5ccc(C(F)(F)[C@](O)(Cn6cnnn6)c6ccc(F)cc6F)nc5)cc4)CC3)nc2c1 [Example 76, (R)-2-(4-(4-(6-(2-(2,4-difluorophenyl)-1,1-difluoro-2-hydroxy-3-(1H-tetrazol-1-yl)propyl)pyridin-3-yl)phenyl)piperazin-1-yl) benzo [d] thiazole-5-carbonitrile]
0.01 to 0.1 (≈ 0.0162 to 0.162 µM) | > 8 |  |  | O=Cc1ccc(N2CCN(c3ccc(-c4ccc(C(F)(F)[C@](O)(Cn5cnnn5)c5ccc(F)cc5F)nc4)cc3)CC2)cc1 [Example 29, (R)-4-(4-(4-(6-(2-(2,4-difluorophenyl)-1,1-difluoro-2-hydroxy-3-(1H-tetrazol-1-yl)propyl)pyridin-3-yl)phenyl)piperazin-1-yl) benzaldehyde]
0.01 to 0.1 (≈ 0.0143 to 0.143 µM) |  |  | 0.25 to 1.0 | OC(CC(F)(F)F)c1ccc(N2CCN(c3ccc(-c4ccc(C(F)(F)[C@](O)(Cn5cncn5)c5ccc(F)cc5F)nc4)cc3)CC2)cn1 (single isomer, unassigned; (-)) [120(−)]
0.0078 to 0.01 (≈ 0.0127 to 0.0163 µM) | 0.25 to 1 (≈ 0.407 to 1.63 µM) |  |  | N#Cc1ccc(N2CCN(c3ccc(-c4ccc(C(F)(F)[C@](O)(Cn5cnnn5)c5ccc(F)cc5F)nc4)cc3)CC2)cc1 [Example 1, (R)-4-(4-(4-(6-(2-(2,4-difluorophenyl)-1,1-difluoro-2-hydroxy-3-(1H-tetrazol-1-yl)propyl)pyridin-3-yl)phenyl)piperazin-1-yl) benzonitrile]
0.01 to 0.1 (≈ 0.0146 to 0.146 µM) | 0.25 to 1 (≈ 0.364 to 1.46 µM) |  |  | NC(c1ccc(N2CCN(c3ccc(-c4ccc(C(F)(F)[C@](O)(Cn5cnnn5)c5ccc(F)cc5F)nc4)cc3)CC2)cc1)C(F)(F)F (stereo partly drawn) [Example 4, (2R)-1-(5-(4-(4-(4-(1-amino-2,2,2-trifluoroethyl)phenyl)piperazin-1-yl)phenyl)pyridin-2-yl)-2-(2,4-difluorophenyl)-1,1-difluoro-3-(1H-tetrazol-1-yl) propan-2-ol]
0.0078 to 0.01 (≈ 0.0123 to 0.0158 µM) | 1 to 4 (≈ 1.58 to 6.3 µM) |  |  | CC(O)c1ccc(N2CCN(c3ccc(-c4ccc(C(F)(F)[C@](O)(Cn5cnnn5)c5ccc(F)cc5F)nc4)cc3)CC2)cn1 (stereo partly drawn) [Example 44, (2R)-2-(2,4-difluorophenyl)-1,1-difluoro-1-(5-(4-(4-(6-(1-hydroxyethyl)pyridin-3-yl)piperazin-1-yl)phenyl)pyridin-2-yl)-3-(1H-tetrazol-1-yl) propan-2-ol]
0.01 to 0.1 (≈ 0.0139 to 0.139 µM) | 0.25 to 1 (≈ 0.348 to 1.39 µM) |  |  | CCC(C(=O)Nc1ccc(N2CCN(c3ccc(-c4ccc(C(F)(F)[C@](O)(Cn5cnnn5)c5ccc(F)cc5F)nc4)cc3)CC2)cc1)C(C)O (stereo partly drawn) [Example 89, N-(4-(4-(4-(6-((R)-2-(2,4-difluorophenyl)-1,1-difluoro-2-hydroxy-3-(1H-tetrazol-1-yl)propyl)pyridin-3-yl)phenyl)piperazin-1-yl)phenyl)-2-ethyl-3-hydroxybutanamide]
0.01 to 0.1 (≈ 0.0145 to 0.145 µM) | 0.25 to 1 (≈ 0.363 to 1.45 µM) |  |  | OC(c1ccc(N2CCN(c3ccc(-c4ccc(C(F)(F)[C@](O)(Cn5cnnn5)c5ccc(F)cc5F)nc4)cc3)CC2)cn1)C(F)(F)F (single isomer, unassigned) [Example 6-Fr-I]
0.0078 to 0.01 (≈ 0.0123 to 0.0158 µM) | 0.25 to 1 (≈ 0.395 to 1.58 µM) |  |  | N#Cc1ccc(N2CCN(c3ccc(-c4ccc(C(F)(F)[C@](O)(Cn5cnnn5)c5ccc(F)cc5F)nc4)cc3)CC2)cc1F [Example 8, (R)-4-(4-(4-(6-(2-(2,4-difluorophenyl)-1,1-difluoro-2-hydroxy-3-(1H-tetrazol-1-yl)propyl)pyridin-3-yl)phenyl)piperazin-1-yl)-2-fluorobenzonitrile]
0.01 to 0.1 (≈ 0.0134 to 0.134 µM) | 0.25 to 1 (≈ 0.336 to 1.34 µM) |  |  | CN(C)CCn1ncn(-c2ccc(N3CCN(c4ccc(-c5ccc(C(F)(F)[C@](O)(Cn6cnnn6)c6ccc(F)cc6F)nc5)cc4)CC3)cc2)c1=O [Example 61, (R)-4-(4-(4-(4-(6-(2-(2,4-difluorophenyl)-1,1-difluoro-2-hydroxy-3-(1H-tetrazol-1-yl)propyl)pyridin-3-yl)phenyl)piperazin-1-yl)phenyl)-2-(2-(dimethylamino)ethyl)-2,4-dihydro-3H-1,2,4-triazol-3-one]
0.0078 to 0.01 (≈ 0.0127 to 0.0163 µM) | 0.25 to 1 (≈ 0.407 to 1.63 µM) |  |  | N#Cc1ccc(N2CCC(c3ccc(-c4ccc(C(F)(F)[C@](O)(Cn5cnnn5)c5ccc(F)cc5F)nc4)cc3)CC2)cc1 [Example 22, (R)-4-(4-(4-(6-(2-(2,4-difluorophenyl)-1,1-difluoro-2-hydroxy-3-(1H-tetrazol-1-yl)propyl)pyridin-3-yl)phenyl)piperidin-1-yl) benzonitrile]
0.0078 to 0.01 (≈ 0.0114 to 0.0146 µM) | 0.25 to 1 (≈ 0.365 to 1.46 µM) |  |  | CC(O)C(F)(F)c1ccc(N2CCN(c3ccc(-c4ccc(C(F)(F)[C@](O)(Cn5cnnn5)c5ccc(F)cc5F)nc4)cc3)CC2)cn1 (stereo partly drawn) [Example 99, (2R)-1-(5-(4-(4-(6-(1,1-difluoro-2-hydroxypropyl)pyridin-3-yl)piperazin-1-yl)phenyl)pyridin-2-yl)-2-(2,4-difluorophenyl)-1,1-difluoro-3-(1H-tetrazol-1-yl) propan-2-ol]
0.0078 to 0.01 (≈ 0.0109 to 0.014 µM) | 0.062 to 0.25 (≈ 0.0867 to 0.35 µM) |  |  | CC(C)n1ncn(-c2ccc(N3CCN(c4ccc(-c5ccc(C(F)(F)[C@](O)(Cn6cnnn6)c6ccc(F)cc6F)nc5)cc4)CC3)cc2)c1=O [Example 52, (R)-4-(4-(4-(4-(6-(2-(2,4-difluorophenyl)-1,1-difluoro-2-hydroxy-3-(1H-tetrazol-1-yl)propyl)pyridin-3-yl)phenyl)piperazin-1-yl)phenyl)-2-isopropyl-2,4-dihydro-3H-1,2,4-triazol-3-one]
0.0078 to 0.01 (≈ 0.0113 to 0.0145 µM) | 0.25 to 1 (≈ 0.362 to 1.45 µM) |  |  | CC(C)(C)CC(O)c1ccc(N2CCN(c3ccc(-c4ccc(C(F)(F)[C@](O)(Cn5cnnn5)c5ccc(F)cc5F)nc4)cc3)CC2)cn1 (stereo partly drawn) [Example 118, 1-(5-(4-(4-(6-((R)-2-(2,4-difluorophenyl)-1,1-difluoro-2-hydroxy-3-(1H-tetrazol-1-yl)propyl)pyridin-3-yl)phenyl)piperazin-1-yl)pyridin-2-yl)-3,3-dimethylbutan-1-ol]
0.0078 to 0.01 (≈ 0.0114 to 0.0146 µM) | 0.25 to 1 (≈ 0.364 to 1.46 µM) |  |  | OC(c1ccc(N2CCN(c3ccc(-c4ccc(C(F)(F)[C@](O)(Cn5cnnc5)c5ccc(F)cc5F)nc4)cc3)CC2)cc1)C(F)(F)F (stereo partly drawn) [Example 16, (2R)-2-(2,4-difluorophenyl)-1,1-difluoro-3-(4H-1,2,4-triazol-4-yl)-1-(5-(4-(4-(4-(2,2,2-trifluoro-1-hydroxyethyl)phenyl)piperazin-1-yl)phenyl)pyridin-2-yl) propan-2-ol]
0.01 to 0.1 (≈ 0.0154 to 0.154 µM) | 0.25 to 1 (≈ 0.385 to 1.54 µM) |  |  | CC(C)(O)c1ccc(N2CCN(c3ccc(-c4ccc(C(F)(F)[C@](O)(Cn5cnnn5)c5ccc(F)cc5F)nc4)cc3)CC2)cn1 [Example 47, (R)-2-(2,4-difluorophenyl)-1,1-difluoro-1-(5-(4-(4-(6-(2-hydroxypropan-2-yl)pyridin-3-yl)piperazin-1-yl)phenyl)pyridin-2-yl)-3-(1H-tetrazol-1-yl) propan-2-ol]
0.01 to 0.1 (≈ 0.0136 to 0.136 µM) | 0.25 to 1 (≈ 0.341 to 1.36 µM) |  |  | CC[C@@H]([C@H](C)O)N(C)C(=O)c1ccc(N2CCN(c3ccc(-c4ccc(C(F)(F)[C@](O)(Cn5cnnn5)c5ccc(F)cc5F)nc4)cc3)CC2)cc1 [Example 83, 4-(4-(4-(6-((R)-2-(2,4-difluorophenyl)-1,1-difluoro-2-hydroxy-3-(1H-tetrazol-1-yl)propyl)pyridin-3-yl)phenyl)piperazin-1-yl)-N-((2S,3S)-2-hydroxypentan-3-yl)-N-methylbenzamide]
